# Measured values reported in patent US12350273B2, “Treatment of SMA” (Hoffmann-La Roche Inc., priority 2017, dated 2025).
# pIC50: −log10 of the molar value. Read-outs that look alike come from different tables or passages of the source.
# What was measured:
# [1] = 39-week monkey toxicity study: toxicokinetics in plasma; assay type: in vivo, cynomolgus monkeys (Macaca fascicularis); settings: for AUC(0-t) / Cmax: cynomolgus monkey, plasma
# Experimental: Blood samples for toxicokinetics (nominally 0.5 mL) were taken from all test article-treated animals on Days 1, 12 (Week 2), 26 (Group 4 only), 57 (Week 9), 92 (Week 14), 180 (Week 26) and 267 (Week 39) of the dosing phase at the following time points: • 0 (predose), 1, 3, 7 and 24 hours postdose
# An additional sample was taken at 72 hours postdose on Day 12 (i.e. Day 15) from all Group 4 animals.
# Samples were taken from the femoral vein/artery. Each blood sample was mixed gently by hand then placed on crushed wet ice until centrifugation at 2300 g for 10 minutes at approximately 4° C. The resultant plasma was separated, split into two uniquely labelled clear polypropylene tubes and frozen at <−50° C. (nominally −80° C.). One sample was transported frozen on dry ice to the Principal Investigator for analysis, and the other was retained at Covance.
# [2] = test system: FOXM1B/C transcript variants; assay: FOXM1B/C mRNA expression in human iPSCs (RT-qPCR); assay type: cell-based; settings: 24 h
# Experimental: FIG. 5A-FIG. 5B: Effect of RO7034067 on FOXM1 mRNA expression levels in human and Cynomolgus monkey iPSCs • Cells were treated with RO7034067 for 24 hours, and FOXM1 B/C transcript variants were analyzed by RT-PCR. Data represent means±SEM of 3 repetitions and are expressed as fold change vs. controls. IC50 values are indicated. FIG. 5A. human iPSCs. FIG. 5B. Cynomolgus monkey iPSCs
# Human iPSCs (hIPS_Neo_Clone_1) were cultivated in mTeSR1 (Stem Cell Technologies) as standard medium and Cynomolgus monkey iPSCs (cips_54-1285_cFIB_Clone_8) in MT medium supplemented with 10 ng/ml ActivinA and 15 ng/ml FGF2.
# For gene expression profiling, stem cells were detached with Accutase (Stem Cell Technologies) and plated in 12 well plates coated with Matrigel (BD Biosciences) in the respective standard medium supplemented with 10 μM Rock inhibitor Y-27632 (Sigma-Aldrich). In order to obtain enough RNA, monkey stem cells were seeded at 15000 cells/cm2 and human stem cells were seeded at 40000 cells/cm2 24 h prior to treatment. Thereafter stem cells were treated for 24 h with serial dilutions (1:5) of test items in fresh, pre-warmed medium in a concentration range from 0.64 nM till ˜10 μM. To stop the experiment, cells were lysed in QiaGen's lysis buffer RLT with beta-mercaptoethanol.
# Human and Cynomolgus monkey mRNA expression was measured with customized primer and FAM fluorescently-labeled Universal Probe Library (UPL) probes from Roche or probes from Microsynth containing a 5′ FAM label and a 3′ terminal BlackHole Dark Quencher 1 (BHQ1). The sequences of the primer and FAM labeled probes are listed as follows:
# For quantitative Real-Time-PCR, cells cultivated in a 12 well plate and treated with Roche-compounds for 24 h were lysed in 500 ul/well of QiaGen's lysis buffer RLT with beta-mercaptoethanol. Total RNA was extracted with the RNeasy Mini kit combined with DNase treatment on a solid support. RNA integrity was controlled by using Nanodrop absorption spectroscopy and microfluidic capillary array electrophoresis profiles from an Agilent Bioanalyzer
# 2100. Between 300 ng to 800 ng of total RNA were reverse transcribed with oligo-dT primer and spiked MS2 RNA at 10 ng/uL final concentration using the Transcriptor First Strand cDNA Synthesis Kit (Roche Applied Science #04379012001) following the manufacturer's recommended protocol. The quantitative PCR was performed on a LightCycler 480 qPCR machine using 67.5 ng total RNA derived cDNA as input in a 20 μl mixture containing 1× LightCycler 480 Probes Master, 0.4 μM forward and reverse primers, and 0.2 μM FAM labeled hydrolysis probe. The temperature program consisted of pre-incubation at 95° C. for 10 min, followed by 50 cycles of amplification (95° C. for 10 s, 60° C. for 30 s, 72° C. for 5 s). Negative control reactions were conducted in the absence of cDNA template to confirm absence of cDNA contamination in the master mix. Measurements of Ct (cycle threshold)-values were performed for each sample-mRNA combination. Using the 2-ΔΔCt method (Livak K J et al. Method. Methods. 2001; 25(4):402-8), the data are presented as the fold change in gene expression normalized to an endogenous reference gene and relative to the untreated control. To derive individual ΔCt values, the Ct value for each target mRNA of each sample was normalized to the Ct value of the endogenous reference mRNA of GAPDH (glyceraldehyde-3-phosphate dehydrogenase). The […] was calculated by subtracting the ΔCt value of the vehicle-control group from the respective ΔCt value of each treatment group. Resultant expression ratios (2-ΔΔCt) mirrored treatment-related mRNA expression changes versus vehicle-controls. […] The model to derive the IC50 assumes that the dose response curves has a standard slope, equal to a Hill slope (or slope factor) of −1.0. Model equation: Y=Bottom+(Top-Bottom)/(1+10^((X-Log IC50))); with Y being the response data and X being log 10 concentrations in μM.
# [3] = test system: MADD gene transcripts; assay: 2-week dose-range finding toxicity study in rat: MADD splicing in spleen, duodenum, testis; assay type: in vivo; settings: rats treated 2 weeks, highest dose of 7.5 mg/kg/day
# Experimental: Gene expression analysis was performed in spleen, duodenum, and testis in rats treated for 2 weeks (MADD gene). […] The changes in splicing of MADD transcripts are consistent with the observations of apoptosis in the GI tract observed at the same dose since MADD gene products have been reported to interfere with the apoptosis processes.
# [4] = test system: retina; assay: 26 weeks of treatment in pigmented rats: retina; assay type: in vivo
# [5] = Aqueous solubility; assay type: physicochemical
# [6] = test system: human RPE cells; assay: Lysosomal function in human RPE cells in vitro; assay type: cell-based
structure (smiles),measurement,setting,value
"Cc1cn2nc(-c3cc(=O)n4cc(N5CCNC6(CC6)C5)ccc4n3)cc(C)c2n1 [RO7034067, 7-(4,7-diazaspiro[2.5]octan-7-yl)-2-(2,8-dimethylimidazo[1,2-b]pyridazin-6-yl)pyrido[1,2-a]pyrimidin-4-one]",gender differences for AUC(0-24h) or Cmax,"[1]; any dose level, 39-week dosing phase",no relevant gender differences
same,dose dependence of AUC(0-24h),[1]; between 1.5 and 5 mg/kg/day on each evaluation day,roughly dose-proportional increase
same,AUC(0-t),"[1]; female, Day 12, 7.5 mg/kg/day oral, read-out: AUC(0-24h), female (mean)",10200 ng·h/mL
same,Cmax,"[1]; female, Day 12, 7.5 mg/kg/day oral, read-out: Cmax, female (mean)",1070 ng/mL
same,Cmax,"[1]; female, Day 267 (Week 39), 1.5 mg/kg/day oral, read-out: Cmax, female (mean)",396 ng/mL
same,AUC(0-t),"[1]; female, Day 267, 1.5 mg/kg/day oral, read-out: AUC(0-24h), female (mean)",2060 ng·h/mL
same,AUC(0-t),"[1]; female, Day 267, 3 mg/kg/day oral, read-out: AUC(0-24h), female (mean)",4850 ng·h/mL
same,Cmax,"[1]; female, Day 267, 3 mg/kg/day oral, read-out: Cmax, female (mean)",973 ng/mL
same,AUC(0-t),"[1]; female, Day 267, 5 mg/kg/day oral (Group 4, 7.5/5), read-out: AUC(0-24h), female (mean)",6470 ng·h/mL
same,Cmax,"[1]; female, Day 267, 5 mg/kg/day oral (Group 4, 7.5/5), read-out: Cmax, female (mean)",1160 ng/mL
same,AUC(0-t),"[1]; male, Day 12, 7.5 mg/kg/day oral, read-out: AUC(0-24h), male (mean)",11200 ng·h/mL
same,Cmax,"[1]; male, Day 12, 7.5 mg/kg/day oral, read-out: Cmax, male (mean)",1020 ng/mL
same,Cmax,"[1]; male, Day 267 (Week 39), 1.5 mg/kg/day oral, read-out: Cmax, male (mean)",414 ng/mL
same,AUC(0-t),"[1]; male, Day 267, 1.5 mg/kg/day oral, read-out: AUC(0-24h), male (mean)",1870 ng·h/mL
same,AUC(0-t),"[1]; male, Day 267, 3 mg/kg/day oral, read-out: AUC(0-24h), male (mean)",4880 ng·h/mL
same,Cmax,"[1]; male, Day 267, 3 mg/kg/day oral, read-out: Cmax, male (mean)",1000 ng/mL
same,AUC(0-t),"[1]; male, Day 267, 5 mg/kg/day oral (Group 4, 7.5/5), read-out: AUC(0-24h), male (mean)",5880 ng·h/mL
same,Cmax,"[1]; male, Day 267, 5 mg/kg/day oral (Group 4, 7.5/5), read-out: Cmax, male (mean)",701 ng/mL
same,Mean FOXM1B/C relative mRNA expression (2^-ΔΔCt vs control),[2]; 0.64 nM,1.115
same,Mean FOXM1B/C relative mRNA expression (2^-ΔΔCt vs control),[2]; 3.2 nM,1.032
same,Mean FOXM1B/C relative mRNA expression (2^-ΔΔCt vs control),[2]; 16 nM,0.898
same,Mean FOXM1B/C relative mRNA expression (2^-ΔΔCt vs control),[2]; 80 nM,0.748
same,Mean FOXM1B/C relative mRNA expression (2^-ΔΔCt vs control),[2]; 400 nM,0.178
same,Mean FOXM1B/C relative mRNA expression (2^-ΔΔCt vs control),[2]; 2000 nM,0.185
same,Mean FOXM1B/C relative mRNA expression (2^-ΔΔCt vs control),[2]; 10000 nM,0.102
same,pIC50,"[2]; iPSC, read-out: IC50 on expression levels of FOXM1B/C",6.94
same,gene expression analysis of MADD gene transcripts,[3],splicing response
same,retinal effects,[4],no evidence for any retinal effects
same,aqueous solubility,[5],high aqueous solubility
same,effect on human RPE cells,[6],Impairment of lysosomal function/autophagosomal accumulation
